Test results from publication PMC9693575, “Isopropyl Amino Acid Esters Ionic Liquids as Vehicles for Non-Steroidal Anti-Inflammatory Drugs in Potential Topical Drug Delivery Systems with Antimicrobial Activity” (International Journal of Molecular Sciences, 2022).
In brackets after ≈: the same amount, converted by molar mass. Like-named read-outs stand apart in the source and are kept apart here.

Columns and labels:
[1] = physchem
Excerpt: This study aims to compare the influence of amino acid structure on the physicochemical properties of NSAID salts with the isopropyl ester of amino acids.

[2] = tested on: Staphylococcus epidermidis; experiment: Disc diffusion antimicrobial susceptibility test, Staphylococcus epidermidis; type: cell-based; design: key to Inhibition diameter: -: no growth of the organism
Procedure: (§1) The plates were incubated for 24 h at 37 °C.

[3] = tested on: Escherichia coli; experiment: Disc diffusion antimicrobial susceptibility test, Escherichia coli; type: cell-based; design: key to Inhibition diameter: -: no growth of the organism
Procedure: as §1

[4] = DTG; cited from earlier work
[5] = pKa / pKB by potentiometric acid-base titration and formation constant log(KS); details: for Log(KS) formation constant: calculated from pKA of acid and pKB of base
Procedure: Determination of formation constant pKs
Zabrze, Poland). For the measurement of pKA acids, 0.1 M NaOH was used. In order to
ester hydrochloride, HCl aqueous solution, was added in an amount that allowed reach-
After that, an acid-base titration was made out by adding dropwise 5 mM

[6] = tested on: Micrococcus Luteus; experiment: Disc diffusion antimicrobial susceptibility test, Micrococcus luteus; type: cell-based; design: key to Inhibition diameter: -: no growth of the organism
[7] = n-octanol-water partition coefficient (logP), shake flask method; type: physicochemical
[8] = Thermogravimetric analysis (thermal stability)
Procedure: The thermal stabilities of the obtained NSAIDs isopropyl ester amino acid salts were investigated. […] The beginning of thermal degradation was evaluated based on the value of onset of the TG curve, which occurs in the first phase of the process. […]
Thermogravimetric analysis (TG)
Thermogravimetric analysis was carried out using Netzsch Proteus Thermal Analy- […]
Samples of 5–8 mg were loaded in Al2O3 […]
ment was performed in an air atmosphere (25 cm3min−1) with nitrogen flow (10 cm3min−1) […]
Differential scanning calorimetry (DSC)
Phase transformation temperatures were determined on a PerkinElmer DSC-7 (Rot-gau, Germany). The samples of 3–5 mg were loaded on the aluminum pan with a crimped lid. Measurements were carried out in a nitrogen atmosphere (20 cm3 min-1). The rate of heating/cooling was 5°C min-1. […]
tained for 30 min inside the furnace, then cooled to 0°C to condition the sample and the crucible. After that, heating was conducted to the specified temperature, followed by cool-ing. Unless otherwise stated, two complete cycles of heating and cooling were performed.
The specified maximum temperature was individual for each compound, determined from TG analysis, and it was at least 10°C lower than the onset decomposition tempera-ture. Temperatures reported from DSC data are curve peaks, the melting points being endothermic upon heating and crystallization point being exothermic upon cooling. Lead, indium, tin, and zinc were used as standards to calibrate the temperature. Indium was used for enthalpy measurement calibration. […]

[9] = solution transferred to disc 25 mg cm^−3
[10] = solution transferred to disc 50 mg cm^−3
[11] = solution transferred to disc 100 mg cm^−3
[12] = solution transferred to disc 200 mg cm^−3
[13] = solution transferred to disc 400 mg cm^−3
[14] = solution transferred to disc 600 mg cm^−3
[15] = solution transferred to disc 800 mg cm^−3
[16] = solution transferred to disc 1000 mg cm^−3
[17] = Micrococcus luteus, 24 h, solution transferred to disc 400 mg cm^−3, read-out: Inhibition diameter
[18] = Micrococcus luteus, 24 h, solution transferred to disc 600 mg cm^−3, read-out: Inhibition diameter
[19] = Micrococcus luteus, 24 h, solution transferred to disc 800 mg cm^−3, read-out: Inhibition diameter

Structure (SMILES)	Solubility in Phosphate Buffer pH = 5.4, as active substance [1] [gAS dm^−3]	Solubility in Phosphate Buffer pH = 7.4, as active substance [1] [gAS dm^−3]	Inhibition diameter [2, 9]	Inhibition diameter [2, 10]	Inhibition diameter [2, 11]	Inhibition diameter [2, 12]	Inhibition diameter [2, 13]	Inhibition diameter [2, 14]	Inhibition diameter [2, 15]	Inhibition diameter [2, 16]	Inhibition diameter [3, 9]	Inhibition diameter [3, 10]	Inhibition diameter [3, 11]	Inhibition diameter [3, 12]	Inhibition diameter [3, 13]	Inhibition diameter [3, 14]	Inhibition diameter [3, 16]	Inhibition diameter [6, 9]	Inhibition diameter [6, 10]	Inhibition diameter [6, 11]	other results
CC(C)Cc1ccc(C(C)C(=O)O)cc1.CCC(C)C(N)C(=O)OC(C)C (mixture of isomers) [[L-IleOiPr][IBU]]	0.631 ± 0.002	2.195 ± 0.021	7.5 ± 0.2 mm	9.5 ± 0.4 mm	14.4 ± 0.2 mm	15.4 ± 0.4 mm	17.0 ± 0.2 mm	17.5 ± 0.1 mm	18.0 ± 0.1 mm	19.3 ± 0.1 mm	-	-	-	6.3 ± 0.1 mm	6.4 ± 0.3 mm	7.1 ± 0.2 mm	7.8 ± 0.3 mm	7.2 ± 0.2 mm	7.6 ± 0.1 mm	8.6 ± 0.1 mm	Solubility in Phosphate Buffer pH = 5.4 [1]: 1.161 ± 0.002 g dm^−3; Solubility in Phosphate Buffer pH = 7.4 [1]: 4.038 ± 0.021 g dm^−3; TDTGmax, maximum decomposition temperature [4]: 221.9 [50] °C; Log(KS) formation constant [5]: 5.78; Inhibition diameter [6, 12]: 9.4 ± 0.2 mm; Inhibition diameter [6, 13]: 10.7 ± 0.1 mm; Inhibition diameter [6, 14]: 11.2 ± 0.1 mm; Inhibition diameter [6, 15]: 11.6 ± 0.1 mm; Inhibition diameter [6, 16]: 12.3 ± 0.2 mm
CC(C)Cc1ccc(C(C)C(=O)O)cc1.CSCCC(N)C(=O)OC(C)C (mixture of isomers) [[L-MetOiPr][IBU]]	0.483 ± 0.011	1.752 ± 0.001	-	-	8.3 ± 0.1 mm	13.6 ± 0.2 mm	14.7 ± 0.2 mm	15.4 ± 0.2 mm	17.0 ± 0.2 mm	17.7 ± 0.3 mm	-	6.1 ± 0.1 mm	6.2 ± 0.1 mm	6.5 ± 0.2 mm	7.1 ± 0.3 mm	7.6 ± 0.2 mm	8.1 ± 0.1 mm	-	7.3 ± 0.2 mm	8.5 ± 0.2 mm	Solubility in Phosphate Buffer pH = 5.4 [1]: 0.932 ± 0.011 g dm^−3; Solubility in Phosphate Buffer pH = 7.4 [1]: 3.376 ± 0.001 g dm^−3; TDTGmax, maximum decomposition temperature [4]: 209.9 [50] °C; Log(KS) formation constant [5]: 5.53; Inhibition diameter [6, 12]: 10.4 ± 0.1 mm; Inhibition diameter [6, 13]: 12.6 ± 0.1 mm; Inhibition diameter [6, 14]: 14.1 ± 0.1 mm; Inhibition diameter [6, 15]: 14.3 ± 0.1 mm; Inhibition diameter [6, 16]: 14.6 ± 0.3 mm
CC(C(=O)O)c1cccc(C(=O)c2ccccc2)c1 (racemic) [KETO, (R,S)-ketoprofen, reference compound]			-	-	-	-	-	-	-	-	-	-	-	-	-	-	-				logP ([7]; n-octanol-water, shake flask, read-out: LogP): 1.577 ± 0.01; pKa [5]: 4.11; zone of inhibition at 25000 µg/mL ([6]; Micrococcus luteus, 24 h, solution transferred to disc 25 mg cm^−3, read-out: Inhibition diameter): 8.3 ± 0.3 mm; zone of inhibition at 50000 µg/mL ([6]; Micrococcus luteus, 24 h, solution transferred to disc 50 mg cm^−3, read-out: Inhibition diameter): 9.6 ± 0.2 mm; zone of inhibition at 100000 µg/mL ([6]; Micrococcus luteus, 24 h, solution transferred to disc 100 mg cm^−3, read-out: Inhibition diameter): 10.2 ± 0.2 mm; zone of inhibition at 200000 µg/mL ([6]; Micrococcus luteus, 24 h, solution transferred to disc 200 mg cm^−3, read-out: Inhibition diameter): 11.1 ± 0.4 mm; zone of inhibition at 400000 µg/mL [6, 17]: 12.5 ± 0.2 mm; zone of inhibition at 600000 µg/mL [6, 18]: 13.3 ± 0.2 mm; zone of inhibition at 800000 µg/mL [6, 19]: 14.2 ± 0.1 mm
O=C(O)c1ccccc1O [SA, salicylic acid, reference compound]	3.862 ± 0.005	5.757 ± 0.024	-	-	-	-					-	-	-					-	-	-	Solubility in Water, as active substance [1]: 3.795 ± 0.004 gAS dm^−3; solubility thermodynamic ([1]; pH 5.4, aqueous buffer): 3862 ± 5 µg/mL (≈ 28 mM); solubility thermodynamic ([1]; pH 7.4, aqueous buffer): 5757 ± 24 µg/mL (≈ 41.7 mM); solubility thermodynamic ([1]; water): 3795 ± 4 µg/mL (≈ 27.5 mM); concentration from which the inhibitory effect was observed ([2]; S. epidermidis): ≥ 400 mg cm^−3; zone of inhibition at 400000 µg/mL ([2]; Staphylococcus epidermidis, 24 h, solution transferred to disc 400 mg cm^−3, read-out: Inhibition diameter): 6.2 ± 0.1 mm; zone of inhibition at 600000 µg/mL ([2]; Staphylococcus epidermidis, 24 h, solution transferred to disc 600 mg cm^−3, read-out: Inhibition diameter): 7 ± 0.2 mm; zone of inhibition at 800000 µg/mL ([2]; Staphylococcus epidermidis, 24 h, solution transferred to disc 800 mg cm^−3, read-out: Inhibition diameter): 8.6 ± 0.3 mm; TTGonset, the onset of the thermal degradation [8]: 146.2 °C; TDTGmax, maximum decomposition temperature ([8]; DTG, air atmosphere, 10 °C min−1): 198.8 °C; zone of inhibition at 200000 µg/mL ([3]; Escherichia coli, 24 h, solution transferred to disc 200 mg cm^−3, read-out: Inhibition diameter): 6.1 ± 0.1 mm; zone of inhibition at 400000 µg/mL ([3]; Escherichia coli, 24 h, solution transferred to disc 400 mg cm^−3, read-out: Inhibition diameter): 6.4 ± 0.1 mm; zone of inhibition at 600000 µg/mL ([3]; Escherichia coli, 24 h, solution transferred to disc 600 mg cm^−3, read-out: Inhibition diameter): 11 ± 0.8 mm; logP [7]: 1.32 ± 0.018; zone of inhibition at 400000 µg/mL [6, 17]: 7.4 ± 0.4 mm; zone of inhibition at 600000 µg/mL [6, 18]: 8.7 ± 0.8 mm; zone of inhibition at 800000 µg/mL [6, 19]: 9.4 ± 0.8 mm; Inhibition diameter [6, 12]: -
